Holding throughout (set-up): recommended concentration 1 uM
The target of test [1] is Muscarinic acetylcholine receptor M4 (Homo sapiens, UniProt P08173). The test can be described thus: Selectivity interaction (US National Institute of Mental Health's Psychoactive Drug Screen Program Selectivity Panel) EUB0001125a CHRM4.
In test [2] the target is Alpha-2C adrenergic receptor (Homo sapiens, UniProt P18825). Description: Selectivity interaction (US National Institute of Mental Health's Psychoactive Drug Screen Program Selectivity Panel) EUB0001125a ADRA2C.
Sequence of Alpha-2C adrenergic receptor (P18825 whole entry): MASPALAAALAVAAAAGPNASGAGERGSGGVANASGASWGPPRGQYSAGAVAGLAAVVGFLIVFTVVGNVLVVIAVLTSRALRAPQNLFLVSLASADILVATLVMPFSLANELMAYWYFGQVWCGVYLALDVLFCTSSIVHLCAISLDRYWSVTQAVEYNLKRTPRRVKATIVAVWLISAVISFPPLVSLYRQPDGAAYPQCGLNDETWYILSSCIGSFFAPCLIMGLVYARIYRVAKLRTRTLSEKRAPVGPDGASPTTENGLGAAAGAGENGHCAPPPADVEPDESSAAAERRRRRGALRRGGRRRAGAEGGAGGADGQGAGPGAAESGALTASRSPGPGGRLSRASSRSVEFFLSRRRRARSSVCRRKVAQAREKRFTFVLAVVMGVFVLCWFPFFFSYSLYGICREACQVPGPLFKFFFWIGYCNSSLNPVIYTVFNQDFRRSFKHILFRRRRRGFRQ
The target in test [3] is Muscarinic acetylcholine receptor M2 (Homo sapiens, UniProt P08172). The test can be described thus: Selectivity interaction (US National Institute of Mental Health's Psychoactive Drug Screen Program Selectivity Panel) EUB0001125a CHRM2.
Sequence of Muscarinic acetylcholine receptor M2 (P08172 whole entry): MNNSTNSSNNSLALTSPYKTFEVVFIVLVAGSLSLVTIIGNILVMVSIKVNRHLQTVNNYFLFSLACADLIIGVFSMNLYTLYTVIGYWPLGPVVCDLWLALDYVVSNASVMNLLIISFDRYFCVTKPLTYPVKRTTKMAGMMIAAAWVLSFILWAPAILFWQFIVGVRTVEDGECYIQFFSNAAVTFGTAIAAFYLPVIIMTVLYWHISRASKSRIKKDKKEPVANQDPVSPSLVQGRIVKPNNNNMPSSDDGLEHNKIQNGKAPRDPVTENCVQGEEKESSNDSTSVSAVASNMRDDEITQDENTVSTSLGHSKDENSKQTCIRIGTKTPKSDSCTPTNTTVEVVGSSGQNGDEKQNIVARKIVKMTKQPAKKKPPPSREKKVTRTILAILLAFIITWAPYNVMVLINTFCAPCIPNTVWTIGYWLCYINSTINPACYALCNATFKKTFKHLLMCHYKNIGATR
Test [4] deals with Muscarinic acetylcholine receptor M1 (Homo sapiens, UniProt P11229). The test can be described thus: Selectivity interaction (US National Institute of Mental Health's Psychoactive Drug Screen Program Selectivity Panel) EUB0001125a CHRM1.
Sequence of Muscarinic acetylcholine receptor M1 (P11229 whole entry): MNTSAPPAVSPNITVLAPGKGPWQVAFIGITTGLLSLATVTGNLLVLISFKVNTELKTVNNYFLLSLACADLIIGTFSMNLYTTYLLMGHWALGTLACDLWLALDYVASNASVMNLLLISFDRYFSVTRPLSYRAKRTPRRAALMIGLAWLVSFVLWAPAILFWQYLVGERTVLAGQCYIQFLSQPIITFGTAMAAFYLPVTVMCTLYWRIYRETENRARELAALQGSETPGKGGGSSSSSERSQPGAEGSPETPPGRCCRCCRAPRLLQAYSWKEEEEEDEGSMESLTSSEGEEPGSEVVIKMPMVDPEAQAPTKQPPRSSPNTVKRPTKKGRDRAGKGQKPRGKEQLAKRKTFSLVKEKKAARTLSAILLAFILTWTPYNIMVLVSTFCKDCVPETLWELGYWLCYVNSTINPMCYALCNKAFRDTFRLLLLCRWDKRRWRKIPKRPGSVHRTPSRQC
In test [5] the target is Muscarinic acetylcholine receptor M2 (Homo sapiens) (UniProt P08172). The test can be described thus: Selectivity interaction (Ricerca selectivity panel) EUB0001125a CHRM2. As to conditions: at 1 µM.
Sequence of Muscarinic acetylcholine receptor M2 (Homo sapiens) (P08172 whole entry): as the sequence (P08172 whole entry) above
Test [6] has as its target 5-hydroxytryptamine receptor 2A (Homo sapiens, UniProt P28223). The test can be described thus: Selectivity interaction (US National Institute of Mental Health's Psychoactive Drug Screen Program Selectivity Panel) EUB0001125a HTR2A.
For test [7], the target named is Alpha-1A adrenergic receptor (Homo sapiens, UniProt P35348). The test can be described thus: Selectivity interaction (US National Institute of Mental Health's Psychoactive Drug Screen Program Selectivity Panel) EUB0001125a ADRA1A.
Sequence of Alpha-1A adrenergic receptor (P35348 whole entry): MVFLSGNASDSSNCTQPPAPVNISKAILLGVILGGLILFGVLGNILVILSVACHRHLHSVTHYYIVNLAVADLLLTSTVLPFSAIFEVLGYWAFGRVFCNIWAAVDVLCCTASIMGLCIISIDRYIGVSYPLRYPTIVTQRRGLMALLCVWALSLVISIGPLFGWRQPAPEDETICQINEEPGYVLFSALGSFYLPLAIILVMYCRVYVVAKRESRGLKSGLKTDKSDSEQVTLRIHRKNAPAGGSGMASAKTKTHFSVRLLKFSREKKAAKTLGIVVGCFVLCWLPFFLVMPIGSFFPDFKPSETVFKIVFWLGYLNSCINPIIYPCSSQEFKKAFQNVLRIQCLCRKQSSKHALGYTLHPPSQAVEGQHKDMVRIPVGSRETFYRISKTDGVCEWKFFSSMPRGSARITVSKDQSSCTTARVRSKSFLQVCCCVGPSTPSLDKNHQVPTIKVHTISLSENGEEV
In test [8] the target is Alpha-1B adrenergic receptor (Homo sapiens) (UniProt P35368). Description: Selectivity interaction (Ricerca selectivity panel) EUB0001125a ADRA1B. As to conditions: at 1 µM.
Sequence of Alpha-1B adrenergic receptor (Homo sapiens) (P35368 whole entry): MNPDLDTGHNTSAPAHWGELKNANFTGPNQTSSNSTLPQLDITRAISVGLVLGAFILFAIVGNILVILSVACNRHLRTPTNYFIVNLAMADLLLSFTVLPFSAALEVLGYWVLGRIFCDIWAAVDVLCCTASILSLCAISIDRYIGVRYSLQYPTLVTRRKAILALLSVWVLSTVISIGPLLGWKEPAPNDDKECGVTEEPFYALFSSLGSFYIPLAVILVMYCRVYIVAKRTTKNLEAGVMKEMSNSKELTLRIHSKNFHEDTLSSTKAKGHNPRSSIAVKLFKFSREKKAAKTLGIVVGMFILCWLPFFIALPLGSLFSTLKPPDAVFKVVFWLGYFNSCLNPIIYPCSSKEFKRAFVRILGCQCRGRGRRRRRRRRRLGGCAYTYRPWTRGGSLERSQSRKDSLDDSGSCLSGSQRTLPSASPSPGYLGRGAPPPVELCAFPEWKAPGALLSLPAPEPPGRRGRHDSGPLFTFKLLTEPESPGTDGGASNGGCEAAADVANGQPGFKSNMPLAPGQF
The target of test [9] is Alpha-1A adrenergic receptor (Homo sapiens) (UniProt P35348). The test can be described thus: Selectivity interaction (Ricerca selectivity panel) EUB0001125a ADRA1A. As to conditions: at 1 µM.
Sequence of Alpha-1A adrenergic receptor (Homo sapiens) (P35348 whole entry): as the sequence (P35348 whole entry) above
The target of test [10] is T1, Caspase-9 (Homo sapiens, UniProt P55211).
T1 sequence (P55211 whole entry): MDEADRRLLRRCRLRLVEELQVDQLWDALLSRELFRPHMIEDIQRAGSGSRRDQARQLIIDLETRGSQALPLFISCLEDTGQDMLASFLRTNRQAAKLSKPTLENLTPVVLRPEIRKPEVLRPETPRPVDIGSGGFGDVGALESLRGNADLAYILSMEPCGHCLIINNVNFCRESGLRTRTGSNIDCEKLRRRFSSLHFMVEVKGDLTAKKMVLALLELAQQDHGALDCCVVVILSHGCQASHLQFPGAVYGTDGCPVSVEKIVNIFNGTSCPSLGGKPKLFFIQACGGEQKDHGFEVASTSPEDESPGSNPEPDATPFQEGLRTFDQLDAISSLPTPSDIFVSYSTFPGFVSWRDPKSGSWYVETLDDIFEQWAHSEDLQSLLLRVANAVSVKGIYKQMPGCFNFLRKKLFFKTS
The test can be described thus: Selectivity interaction (Eurofins (enzymatic assay)) EUB0002202a CASP9.

The target of test [11] is T2, Caspase-8 (Homo sapiens, UniProt Q14790). The test can be described thus: Selectivity interaction (Eurofins (enzymatic assay)) EUB0002202a CASP8.
T2 sequence (Q14790 217-374 limits assumed): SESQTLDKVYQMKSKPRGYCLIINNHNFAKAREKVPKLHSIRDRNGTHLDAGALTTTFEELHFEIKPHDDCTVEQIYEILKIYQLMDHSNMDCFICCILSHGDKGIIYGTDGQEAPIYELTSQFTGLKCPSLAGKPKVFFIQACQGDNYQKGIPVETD
T2 sequence (Q14790 385-479 limits assumed): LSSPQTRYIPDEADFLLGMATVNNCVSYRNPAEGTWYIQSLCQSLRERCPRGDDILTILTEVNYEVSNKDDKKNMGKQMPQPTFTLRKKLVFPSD
The target of test [12] is T3, Caspase-7 (Homo sapiens, UniProt P55210).
T3 sequence (P55210 whole entry): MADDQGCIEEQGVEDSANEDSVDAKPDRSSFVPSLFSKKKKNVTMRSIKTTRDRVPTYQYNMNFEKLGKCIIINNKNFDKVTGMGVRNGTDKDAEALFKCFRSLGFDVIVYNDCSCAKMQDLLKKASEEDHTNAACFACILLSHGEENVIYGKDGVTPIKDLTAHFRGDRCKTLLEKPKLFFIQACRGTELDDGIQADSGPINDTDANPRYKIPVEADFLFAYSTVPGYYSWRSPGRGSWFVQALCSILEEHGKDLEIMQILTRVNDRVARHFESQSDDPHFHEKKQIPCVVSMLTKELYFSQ
The test can be described thus: Selectivity interaction (Eurofins (enzymatic assay)) EUB0002202a CASP7.

Test [13] deals with N-lysine methyltransferase SMYD2 (Homo sapiens, UniProt Q9NRG4). Description: Selectivity interaction (Enzymatic assay) EUB0002243aAD SMYD2.
Sequence of N-lysine methyltransferase SMYD2 (Q9NRG4 whole entry): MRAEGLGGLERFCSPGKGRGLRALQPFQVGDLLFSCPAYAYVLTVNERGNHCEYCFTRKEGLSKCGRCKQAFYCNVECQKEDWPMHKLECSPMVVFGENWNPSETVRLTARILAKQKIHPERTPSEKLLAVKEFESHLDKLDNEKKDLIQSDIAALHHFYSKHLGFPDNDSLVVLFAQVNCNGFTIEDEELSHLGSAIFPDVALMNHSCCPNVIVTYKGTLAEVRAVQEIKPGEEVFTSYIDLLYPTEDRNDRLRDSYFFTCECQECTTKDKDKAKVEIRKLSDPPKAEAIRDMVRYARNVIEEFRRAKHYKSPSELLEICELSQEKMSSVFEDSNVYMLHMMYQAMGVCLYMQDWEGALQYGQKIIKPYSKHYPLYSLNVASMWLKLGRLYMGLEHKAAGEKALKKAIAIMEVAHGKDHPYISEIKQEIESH
Test [14] has as its target T1, Caspase-9. Description: (§1) Selectivity interaction (Enzymatic assay) EUB0002178aAD CASP9.
The target of test [15] is T3, Caspase-7. The test can be described thus: (§2) Selectivity interaction (Enzymatic assay) EUB0002178aAD CASP7.
Test [16] has as its target T2, Caspase-8. The test can be described thus: (§3) Selectivity interaction (Enzymatic assay) EUB0002178aAD CASP8.
For test [17], the target named is T3, Caspase-7. The description is as §2. The source holds these as a separate data set.
Test [18] deals with T1, Caspase-9. The test is described as §1. This is another data set of the same source.
Test [19] concerns the target T2, Caspase-8. The test is described as §3. The source holds these as a separate data set.
Test [20] deals with T1, Caspase-9. Description: Selectivity interaction (Enzymatic assay) EUB0002177aAD CASP9.

The record followed here is ChEMBL document CHEMBL5715260, “Selectivity Literature for EUbOPEN Chemogenomic Library” (2024).

Where a SMILES comes first, the peptide text is derived from it. The star is where a group is joined. Cbz = O=C(OCc1ccccc1)*; CH2F = FC*

Sequence of Muscarinic acetylcholine receptor M4 (P08173 whole entry): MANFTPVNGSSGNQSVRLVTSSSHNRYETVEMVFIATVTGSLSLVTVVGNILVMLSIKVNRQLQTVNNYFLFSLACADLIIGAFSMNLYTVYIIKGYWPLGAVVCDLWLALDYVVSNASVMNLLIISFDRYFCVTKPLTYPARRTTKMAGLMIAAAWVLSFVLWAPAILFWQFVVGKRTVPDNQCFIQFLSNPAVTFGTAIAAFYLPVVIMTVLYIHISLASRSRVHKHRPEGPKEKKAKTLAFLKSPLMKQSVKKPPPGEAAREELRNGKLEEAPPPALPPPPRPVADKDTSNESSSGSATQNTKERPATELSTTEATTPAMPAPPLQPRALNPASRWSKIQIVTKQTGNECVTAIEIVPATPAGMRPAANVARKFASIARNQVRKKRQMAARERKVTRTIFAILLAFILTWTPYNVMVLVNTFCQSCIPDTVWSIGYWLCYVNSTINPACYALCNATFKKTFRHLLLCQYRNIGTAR
Sequence of 5-hydroxytryptamine receptor 2A (P28223 whole entry): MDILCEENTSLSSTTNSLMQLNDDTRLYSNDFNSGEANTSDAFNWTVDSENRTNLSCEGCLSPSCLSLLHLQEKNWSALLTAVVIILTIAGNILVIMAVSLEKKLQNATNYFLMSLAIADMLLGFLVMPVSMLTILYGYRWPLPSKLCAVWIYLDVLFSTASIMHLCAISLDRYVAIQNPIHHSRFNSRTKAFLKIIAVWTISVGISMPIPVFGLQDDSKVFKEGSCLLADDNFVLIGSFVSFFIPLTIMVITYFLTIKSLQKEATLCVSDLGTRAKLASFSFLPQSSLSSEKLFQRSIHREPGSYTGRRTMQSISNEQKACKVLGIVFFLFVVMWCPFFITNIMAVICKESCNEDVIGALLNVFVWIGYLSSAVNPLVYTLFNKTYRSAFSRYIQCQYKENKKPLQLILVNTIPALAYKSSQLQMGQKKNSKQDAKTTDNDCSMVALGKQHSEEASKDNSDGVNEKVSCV

One may read the Ki as a dissociation constant, usually derived from enzyme kinetics or from competition with a known ligand. The low end stands for a stronger hold on the target, the high end for a looser hold on the target. Consider `COc1cc2c(NC3CCN(C(C)C)CC3)nc(C3CCCCC3)nc2cc1OCCCN1CCCC1`, for which the Ki in test [1] is 0.51 µM; in test [2] it was 0.4 µM; in test [3], 0.51 µM; in test [4], 0.37 µM; in test [6], 1.2 µM; in test [7], 0.5 µM. In addition, the figures for the Inhibition of control in [5], in [8] and in [9] were 64%, 69% and 90%, respectively.

The term IC50 denotes the point on the concentration scale where inhibition reaches its midpoint. A high value points to a need for much substance. On to `COC(=O)CC[C@H](NC(=O)[C@H](Cc1c[nH]c2ccccc12)NC(=O)OCc1ccccc1)C(=O)N[C@@H](Cc1cnc[nH]1)C(=O)N[C@@H](CC(=O)OC)C(=O)CF` (Cbz-WE(OMe)HD(OMe)-CH2F), for which the half-inhibitory concentration (IC50) in test [10] was 0.24 µM; in test [11] it was 0.22 µM; in [12], 0.58 µM.

In turn, `CN(C)CCCN(CC[C@H](N)C(=O)O)C[C@H]1O[C@@H](n2cnc3c(N)ncnc32)[C@H](O)[C@@H]1O` returned a Ki in test [13] of 0.345 µM.

For the compound `CC[C@H](C)[C@H](NC(=O)[C@H](CCC(=O)O)NC(=O)[C@@H](NC(C)=O)C(C)C)C(=O)N[C@H](C=O)CC(=O)O` (Ac-VEID-aldehyde), the concentration for half-maximal inhibition (IC50) came to 0.002 µM in test [14]; 0.162 µM in test [15]; 0.026 µM in [16]; 0.162 µM in [17]; 0.002 µM in test [18]; 0.026 µM in test [19].

In test [20], `CC[C@H](C)[C@H](NC(C)=O)C(=O)N[C@@H](CCC(=O)O)C(=O)N[C@H](C(=O)N[C@H](C=O)CC(=O)O)[C@@H](C)O` (Ac-IETD-aldehyde) returned a concentration for half-maximal inhibition (IC50) of 0.035 µM.
